ChEMBL document CHEMBL1255353, “Antistreptococcal activity of AR-709 compared to that of other agents” (2008)
In brackets after ≈: the same amount, converted by molar mass.

Legend:
Type in all cases: functional
[1] = test system: Streptococcus pneumoniae; experiment: Antimicrobial activity against penicillin-resistant Streptococcus pneumoniae by agar dilution method
[2] = test system: Streptococcus pneumoniae; experiment: Antimicrobial activity against macrolide-resistant Streptococcus pneumoniae by agar dilution method
[3] = test system: Streptococcus pneumoniae; experiment: Antimicrobial activity against penicillin-intermediate Streptococcus pneumoniae by agar dilution method
[4] = test system: Streptococcus pneumoniae; experiment: Antimicrobial activity against quinolone-resistant Streptococcus pneumoniae by agar dilution method
[5] = test system: Streptococcus pneumoniae; experiment: Antimicrobial activity against trimethoprim-sulfamethoxazole-susceptible Streptococcus pneumoniae by agar dilution method
[6] = test system: Streptococcus pneumoniae; experiment: Antimicrobial activity against penicillin-susceptible Streptococcus pneumoniae by agar dilution method
[7] = test system: Streptococcus pneumoniae; experiment: Antimicrobial activity against macrolide-susceptible Streptococcus pneumoniae by agar dilution method
[8] = test system: Streptococcus pneumoniae; experiment: Antimicrobial activity against trimethoprim-sulfamethoxazole-resistant Streptococcus pneumoniae by agar dilution method
[9] = test system: Streptococcus pneumoniae; experiment: Antimicrobial activity against quinolone-susceptible Streptococcus pneumoniae by agar dilution method
[10] = test system: Streptococcus sp. 'group A'; experiment: Antimicrobial activity against macrolide-susceptible Streptococcus sp. 'group A' by agar dilution method
[11] = test system: Streptococcus sp. 'group A'; experiment: Antimicrobial activity against macrolide-resistant Streptococcus sp. 'group A' by agar dilution method
[12] = test system: Streptococcus pneumoniae; experiment: Antimicrobial activity against Streptococcus pneumoniae assessed as time required to show antibiotic effect
[13] = test system: Streptococcus pneumoniae; experiment: Antimicrobial activity against quinolone-susceptible Streptococcus pneumoniae by agar dilution method in presence of […] clavulanic acid
[14] = test system: Streptococcus pneumoniae; experiment: Antimicrobial activity against macrolide-resistant Streptococcus pneumoniae by agar dilution method in presence of […] clavulanic acid
[15] = test system: Streptococcus pneumoniae; experiment: Antimicrobial activity against trimethoprim-sulfamethoxazole-resistant Streptococcus pneumoniae by agar dilution method in presence of […] clavulanic acid
[16] = test system: Streptococcus pneumoniae; experiment: Antimicrobial activity against penicillin-intermediate Streptococcus pneumoniae by agar dilution method in presence of […] clavulanic acid
[17] = test system: Streptococcus pneumoniae; experiment: Antimicrobial activity against penicillin-resistant Streptococcus pneumoniae by agar dilution method in presence of […] clavulanic acid
[18] = test system: Streptococcus pneumoniae; experiment: Antimicrobial activity against quinolone-resistant Streptococcus pneumoniae by agar dilution method in presence of […] clavulanic acid
[19] = test system: Streptococcus pneumoniae; experiment: Antimicrobial activity against penicillin-susceptible Streptococcus pneumoniae by agar dilution method in presence of […] clavulanic acid
[20] = test system: Streptococcus pneumoniae; experiment: Antimicrobial activity against trimethoprim-sulfamethoxazole-susceptible Streptococcus pneumoniae by agar dilution method in presence of […] clavulanic acid
[21] = test system: Streptococcus pneumoniae; experiment: Antimicrobial activity against macrolide-susceptible Streptococcus pneumoniae by agar dilution method in presence of […] clavulanic acid
[22] = test system: Streptococcus sp. 'group A'; experiment: Antimicrobial activity against macrolide-susceptible Streptococcus sp. 'group A' by agar dilution method in presence of […] clavulanic acid

## CC1(C)S[C@@H]2[C@H](NC(=O)Cc3ccccc3)C(=O)N2[C@H]1C(=O)O [PENICILLIN G]
[1]
  MIC: 2 µg/mL (≈ 5.98 µM)
  MIC50: 2 µg/mL (≈ 5.98 µM)
  MIC90: 4 µg/mL (≈ 12 µM)
[2]
  MIC50: 0.25 µg/mL (≈ 0.748 µM)
  MIC90: 4 µg/mL (≈ 12 µM)
[3]
  MIC50: 0.25 µg/mL (≈ 0.748 µM)
  MIC90: 1 µg/mL (≈ 2.99 µM)
[4]
  MIC50: 0.5 µg/mL (≈ 1.5 µM)
  MIC90: 2 µg/mL (≈ 5.98 µM)
[5]
  MIC50: 0.03 µg/mL (≈ 0.0897 µM)
  MIC90: 0.25 µg/mL (≈ 0.748 µM)
[6]
  MIC50: 0.016 µg/mL (≈ 0.0478 µM)
  MIC90: 0.06 µg/mL (≈ 0.179 µM)
[7]
  MIC50: 0.12 µg/mL (≈ 0.359 µM)
  MIC90: 2 µg/mL (≈ 5.98 µM)
[8]
  MIC50: 1 µg/mL (≈ 2.99 µM)
  MIC90: 4 µg/mL (≈ 12 µM)
[9]
  MIC: 0.12 µg/mL (≈ 0.359 µM)
  MIC50: 0.12 µg/mL (≈ 0.359 µM)
  MIC90: 2 µg/mL (≈ 5.98 µM)

## C[C@H]1COc2c(N3CCN(C)CC3)c(F)cc3c(=O)c(C(=O)O)cn1c23.C[C@H]1COc2c(N3CCN(C)CC3)c(F)cc3c(=O)c(C(=O)O)cn1c23.O [LEVOFLOXACIN]
[1]
  MIC50: 1 µg/mL
  MIC90: 4 µg/mL
[2]
  MIC50: 1 µg/mL
  MIC90: 2 µg/mL
[3]
  MIC50: 1 µg/mL
  MIC90: 2 µg/mL
[4]
  MIC50: 16 µg/mL
  MIC90: 16 µg/mL
[5]
  MIC50: 1 µg/mL
  MIC90: 2 µg/mL
[10]
  MIC: 0.5 µg/mL
  MIC50: 0.5 µg/mL
  MIC90: 2 µg/mL
[6]
  MIC50: 1 µg/mL
  MIC90: 8 µg/mL
[7]
  MIC50: 1 µg/mL
  MIC90: 8 µg/mL
[8]
  MIC50: 1 µg/mL
  MIC90: 2 µg/mL
[9]
  MIC50: 1 µg/mL
  MIC90: 1 µg/mL
[11]
  MIC50: 0.5 µg/mL
  MIC90: 1 µg/mL

## CO/N=C(\C(=O)N[C@@H]1C(=O)N2C(C(=O)O)=C(COC(N)=O)CS[C@H]12)c1ccco1 [CEFUROXIME]
[1]
  MIC50: 4 µg/mL (≈ 9.43 µM)
  MIC90: 16 µg/mL (≈ 37.7 µM)
[2]
  MIC50: 0.5 µg/mL (≈ 1.18 µM)
  MIC90: 8 µg/mL (≈ 18.9 µM)
[3]
  MIC50: 0.25 µg/mL (≈ 0.589 µM)
  MIC90: 4 µg/mL (≈ 9.43 µM)
[4]
  MIC50: 2 µg/mL (≈ 4.71 µM)
  MIC90: 8 µg/mL (≈ 18.9 µM)
[5]
  MIC50: 0.03 µg/mL (≈ 0.0707 µM)
  MIC90: 0.5 µg/mL (≈ 1.18 µM)
[10]
  MIC: 0.016 µg/mL (≈ 0.0377 µM)
  MIC50: 0.016 µg/mL (≈ 0.0377 µM)
  MIC90: 0.016 µg/mL (≈ 0.0377 µM)
[6]
  MIC50: 0.03 µg/mL (≈ 0.0707 µM)
  MIC90: 0.12 µg/mL (≈ 0.283 µM)
[7]
  MIC50: 0.25 µg/mL (≈ 0.589 µM)
  MIC90: 4 µg/mL (≈ 9.43 µM)
[8]
  MIC50: 2 µg/mL (≈ 4.71 µM)
  MIC90: 8 µg/mL (≈ 18.9 µM)
[9]
  MIC50: 0.25 µg/mL (≈ 0.589 µM)
  MIC90: 4 µg/mL (≈ 9.43 µM)
[11]
  MIC: 0.016 µg/mL (≈ 0.0377 µM)
  MIC50: 0.016 µg/mL (≈ 0.0377 µM)
  MIC90: 0.03 µg/mL (≈ 0.0707 µM)

## COc1cc(Cc2cnc(N)nc2N)c2cc(Cc3c(C(=O)N(C)C)[nH]c4ccc(Cl)cc34)oc2c1OC
[1]
  MIC50: 0.25 µg/mL (≈ 0.467 µM)
  MIC90: 1 µg/mL (≈ 1.87 µM)
[12]
  Time: >=1.1 hr
[2]
  MIC50: 0.25 µg/mL (≈ 0.467 µM)
  MIC90: 0.5 µg/mL (≈ 0.935 µM)
[3]
  MIC50: 0.25 µg/mL (≈ 0.467 µM)
  MIC90: 0.5 µg/mL (≈ 0.935 µM)
[4]
  MIC50: 0.25 µg/mL (≈ 0.467 µM)
  MIC90: 1 µg/mL (≈ 1.87 µM)
[5]
  MIC50: 0.06 µg/mL (≈ 0.112 µM)
  MIC90: 0.12 µg/mL (≈ 0.224 µM)
[10]
  MIC50: 0.06 µg/mL (≈ 0.112 µM)
  MIC90: 0.06 µg/mL (≈ 0.112 µM)
[6]
  MIC50: 0.06 µg/mL (≈ 0.112 µM)
  MIC90: 0.25 µg/mL (≈ 0.467 µM)
[7]
  MIC50: 0.12 µg/mL (≈ 0.224 µM)
  MIC90: 0.5 µg/mL (≈ 0.935 µM)
[8]
  MIC50: 0.25 µg/mL (≈ 0.467 µM)
  MIC90: 0.5 µg/mL (≈ 0.935 µM)
[9]
  MIC50: 0.12 µg/mL (≈ 0.224 µM)
  MIC90: 0.5 µg/mL (≈ 0.935 µM)
[11]
  MIC50: 0.016 µg/mL (≈ 0.0299 µM)
  MIC90: 0.03 µg/mL (≈ 0.0561 µM)

## O=C(O)c1cn(C2CC2)c2cc(N3CCNCC3)c(F)cc2c1=O [CIPROFLOXACIN]
[2]
  MIC50: 1 µg/mL (≈ 3.02 µM)
  MIC90: 4 µg/mL (≈ 12.1 µM)
[3]
  MIC50: 1 µg/mL (≈ 3.02 µM)
  MIC90: 4 µg/mL (≈ 12.1 µM)
[4]
  MIC50: 32 µg/mL (≈ 96.6 µM)
  MIC90: > 32 µg/mL
[10]
  MIC: 0.5 µg/mL (≈ 1.51 µM)
  MIC50: 0.5 µg/mL (≈ 1.51 µM)
  MIC90: 1 µg/mL (≈ 3.02 µM)
[8]
  MIC50: 1 µg/mL (≈ 3.02 µM)
  MIC90: 4 µg/mL (≈ 12.1 µM)
[9]
  MIC50: 1 µg/mL (≈ 3.02 µM)
  MIC90: 2 µg/mL (≈ 6.04 µM)
[11]
  MIC50: 0.5 µg/mL (≈ 1.51 µM)
  MIC90: 2 µg/mL (≈ 6.04 µM)

## CC1(C)S[C@@H]2[C@H](NC(=O)[C@H](N)c3ccc(O)cc3)C(=O)N2[C@H]1C(=O)O [AMOXICILLIN]
[13]
  MIC50: 0.12 µg/mL
  MIC90: 2 µg/mL
[14]
  MIC50: 0.12 µg/mL
  MIC90: 4 µg/mL
[15]
  MIC50: 0.5 µg/mL
  MIC90: 4 µg/mL
[16]
  MIC50: 0.12 µg/mL
  MIC90: 1 µg/mL
[17]
  MIC50: 2 µg/mL
  MIC90: 4 µg/mL
[18]
  MIC50: 0.5 µg/mL
  MIC90: 2 µg/mL
[19]
  MIC: ≤ 0.016 µg/mL
  MIC50: ≤ 0.016 µg/mL
  MIC90: 0.03 µg/mL
[20]
  MIC50: 0.03 µg/mL
  MIC90: 0.12 µg/mL
[21]
  MIC50: 0.06 µg/mL
  MIC90: 1 µg/mL
[22]
  MIC: ≤ 0.016 µg/mL
  MIC50: ≤ 0.016 µg/mL
  MIC90: ≤ 0.016 µg/mL

## CC[C@H]1OC(=O)[C@H](C)[C@@H](O[C@H]2C[C@@](C)(OC)[C@@H](O)[C@H](C)O2)[C@H](C)[C@@H](O[C@@H]2O[C@H](C)C[C@H](N(C)C)[C@H]2O)[C@](C)(O)C[C@@H](C)CN(C)[C@H](C)[C@@H](O)[C@]1(C)O [AZITHROMYCIN]
[1]
  MIC50: 8 µg/mL (≈ 10.7 µM)
[2]
  MIC50: > 64 µg/mL
[3]
  MIC50: 0.12 µg/mL (≈ 0.16 µM)
  MIC90: > 64 µg/mL
[4]
  MIC50: 0.12 µg/mL (≈ 0.16 µM)
[5]
  MIC50: 0.12 µg/mL (≈ 0.16 µM)
  MIC90: > 64 µg/mL
[10]
  MIC50: 0.12 µg/mL (≈ 0.16 µM)
  MIC90: 0.25 µg/mL (≈ 0.334 µM)
[6]
  MIC50: 0.12 µg/mL (≈ 0.16 µM)
  MIC90: > 64 µg/mL
[7]
  MIC50: 0.12 µg/mL (≈ 0.16 µM)
  MIC90: 0.12 µg/mL (≈ 0.16 µM)
[8]
  MIC50: 8 µg/mL (≈ 10.7 µM)
[9]
  MIC50: 4 µg/mL (≈ 5.34 µM)
  MIC90: > 64 µg/mL
[11]
  MIC50: > 64 µg/mL
  MIC90: > 64 µg/mL
